Laboratory results: US8642341B2, “Materials and methods for gene mediated therapy of psychiatric disorders” (Cornell University, priority 2007, dated 2014)

How the values were obtained:
mice [1] = test: mouse tail suspension test (TST); format: in vivo; settings: mice injected with control vector or no virus
Excerpt: (§1) Two mouse groups (n=10) received bilateral nucleus accumbens injections of AAV-p11-siRNA or control vector. The mouse groups are referenced herein as the “knockdown group” or “control” respectively. Behavioral testing began 6 weeks later, when expression from AAV vectors usually peaks. Behavioral testing included mouse tail suspension test (TST), open filed test, and forced swim test (FST).
(§2) Knockdown and control groups of mice were transfected with AAV-p11-siRNA or control AAV vector, as described in Example 1. An additional control group was not transfected with any virus. The mice were subsequently treated with the antidepressant imipramine.
(§3) The AAV plasmid shown in FIGS. 2 and 3 was used to generate a virus vector, which expresses the p11 gene product and which has the same AAV2 backbone described in Example 1. The resulting virus vector (“AAV-p11,” which is SEQ ID NO: 3) was injected into the nucleus accumbens of normal adult mice.
(§4) Three groups of p11 knockdown mice (as in Example 1) were transfected with no virus, control virus vector, and the AAV-p11 virus vector of Example 3, respectively. Each knockdown transfectant group was compared to a wild-type counterpart group, which was also transfected with no virus, control virus vector, or AAV-p11. All virus transfections involved bilateral injection to the nucleus accumbens.

mice [2] = test: forced swim test (FST); format: in vivo, mouse; settings: mice injected with control vector or no virus
Excerpt: as §1, §2, §3, §4

## CN(C)CCCN1c2ccccc2CCc2ccccc21 [imipramine]
Mice [1]
  immobility on the TST after imipramine: decreased immobility
Mice [2]
  immobility on the FST after imipramine: decreased immobility
